Reference: patent US8883135B2, “Crystalline form of a pyridyl-piperazinyl hepatitis C virus inhibitor” (Theravance Biopharma R&D IP, LLC, priority 2012, dated 2014)

Legend:
[1] = Dynamic Moisture Sorption Assessment; format: physicochemical; settings: for deliquescence: exposed to up to about 90% relative humidity at room temperature; for change in solid form (powder diffraction pattern) after two sorption/desorption cycles: two DMS cycles, PXRD compared with the starting material
Procedure: Dynamic moisture sorption (DMS) measurements were performed for each crystalline form using a VTI atmospheric microbalance, SGA-100 system (VTI Corp., Hialeah, Fla. 33016). A weighed sample was used and the humidity was lowest possible value (close to 0% RH) at the start of the analysis. […] The DMS run was performed isothermally at 25° C.

[2] = tested on: HCV genotype 1b replicon cell line (Huh7 cell background); assay: HCV Genotype 1b Replicon Assay; format: cell-based; settings: Hepatitis C virus, Huh-7, luciferase activity readout, 48 hours incubation
Text: The HCV genotype 1b replicon cell line was obtained from Apath LLC (Brooklyn, N.Y.) (APC144; Huh7 cell background). This subgenomic replicon contains the N-terminus of the HCV core protein fused to the neomycin-resistance selectable marker. The EMCV IRES lies downstream and drives expression of humanized Renilla luciferase fused to the non-structural proteins NS3-NS5B. This cell line was used to determine compound potency using the luciferase activity readout as a measurement of compound inhibition of replicon levels.
Cells were grown at 37° C. in a 5% CO2 humidified incubator in DMEM (Invitrogen) with 10% FBS (HyClone), 1×NEAA (Invitrogen), 1× Pen-Strep (Invitrogen), and 500 μg/mL G418 (Invitrogen). On day 1 of the assay, cells were plated at 10,000 cells/well in white 96-well tissue culture plates (Costar) in 200 μL media lacking G418. […] At the end of the incubation period, media and compound were removed from the plates and the luciferase activity was determined using Promega Renilla-Glo reagents.
To analyze the data, the luciferase activity was plotted vs. the compound concentration, and EC50 values were determined from a 4-parameter robust fit model with the GraphPad Prism software package (GraphPad Software, Inc., San Diego, Calif.). Results are expressed as the negative decadic logarithm of the EC50 value, pEC50. […]

[3] = tested on: HCV genotype 1a replicon cell line (Huh7.5 cell background); assay: HCV Genotype 1a Replicon Assay; format: cell-based; settings: Hepatitis C virus, NS3-specific protease activity in lysates, 48 or 72 hours incubation
Procedure: The HCV genotype 1a replicon cell line was obtained from Apath LLC (APC89; Huh7.5 cell background). This subgenomic replicon contains the N-terminus of the HCV core protein fused to the neomycin-resistance selectable marker. The EMCV IRES lies downstream and drives expression of the non-structural proteins NS3-NS5B. Compound potencies were determined using the NS3-specific protease activity in lysates as a measurement of compound inhibition of replicon levels.
Cells were grown at 37° C. in a 5% CO2 humidified incubator in DMEM (Invitrogen) with 10% FBS (HyClone), 1×NEAA (Invitrogen), 1× Pen-Strep (Invitrogen), and 850 μg/mL G418 (Invitrogen). On day 1 of the assay, cells were plated at 15,000 cells/well in black 96-well tissue culture plates (Costar) in 200 μL media lacking G418. […]
To determine the NS3-specific protease activity in lysates, the cells were lysed at room temperature in 50 μL/well of 50 mM Hepes pH 7.5, 150 mM NaCl, 15% Glycerol, 0.15% Triton X-100, 10 mM DTT for 20 minutes with shaking. […] Protease activity was determined by measuring fluorescence (Excitation: 340 nm; Emission: 509 nm).
To analyze the data, the fluorescence was plotted vs. the compound concentration, and EC50 values were determined from a 4-parameter robust fit model using GraphPad Prism software.

[4] = tested on: HCV replicon resistant mutants: genotype 1b L31V and Y93H; genotype 1a Q30R and L31V; assay: Replicon Assays Against Resistant Mutants (stably transfected Huh7 cells); format: cell-based; settings: Hepatitis C virus, Huh-7, read-out: pEC50 (converted)
Procedure: To create replicon cells with resistant mutations of interest, the mutation was first introduced into the parental plasmid by site-directed mutagenesis. Mutations in genotype 1b included L31V and Y93H. Mutations in genotype 1a included Q30R and L31V. The replicon plasmid was then linearized and in vitro transcribed to RNA. The RNA was used to stably transfect Huh7 cells by electroporation, and new cell lines were selected with 500 μg/mL G418. Potencies of test compounds against these mutant cell lines were determined as previously described above for the HCV Genotype 1b and 1a replicon assays.

[5] = tested on: HCV replicon mutants genotype 1a Y93H, M28T, and Q30E; assay: Replicon assays against resistant mutants (transient transfection, Huh-LUNET cells); format: cell-based; settings: Hepatitis C virus, read-out: pEC50 (converted)
Procedure: Potencies of test compounds against additional mutations of interest were determined using transient transfection assays. These mutants included genotype 1a Y93H, M28T, and Q30E. The mutation was first introduced into the parental plasmid by site-directed mutagenesis. The replicon plasmid was then linearized and in vitro transcribed to RNA. The RNA was used to transiently transfect Huh-LUNET cells (obtained from ReBLikon GmbH, Schriesheim, Germany) by electroporation, and the potencies of test compounds against the mutants were determined as previously described.

[6] = humidity range of 2% to 90% relative humidity at room temperature

Row | Compound | deliquescence [1] | weight gain (dynamic moisture sorption) [1, 6] | weight gain (dynamic moisture sorption) ([1]; humidity range of 2% to 90% relative humidity at room temperature, listed as Crystalline compound 1) [%] | change in solid form (powder diffraction pattern) after two sorption/desorption cycles [1] | EC50 [2] [nM] | EC50 [3] [nM] | EC50 [4] [nM] | EC50 [5] [nM] | weight gain (dynamic moisture sorption) ([1]; at 90% relative humidity during the initial adsorption segment)
1 | CNC(=O)N1C[C@@H](C)N(c2ccc(C(=O)Nc3ccc(-c4ccc(-c5c[nH]c([C@@H]6CCCN6C(=O)[C@@H](NC(=O)OC)C(C)C)n5)cc4)c(OC(F)(F)F)c3)cn2)C[C@@H]1C [crystalline compound 1, Crystalline ((S)-1-{(S)-2-[4-(4′-{[6-((2R,5S)-2,5-Dimethyl-4-methylcarbamoyl-piperazin-1-yl)-pyridine-3-carbonyl]-amino}-2′-trifluoromethoxy-biphenyl-4-yl)-1H-imidazol-2-yl]-pyrrolidine-1-carbonyl}-2-methyl-propyl)-carbamic acid methyl ester] | neither crystalline compound 1 nor the anhydrous and hydrate forms of the crystalline dihydrochloride salt of compound 1 is deliquescent | about 3% | ≤ 3 | no change in form |  |  |  |  | 
2 | Crystalline ((S)-1-{(S)-2-[4-(4′-{[6-((2R,5S)-2,5-Dimethyl-4-methylcarbamoyl-piperazin-1-yl)-pyridine-3-carbonyl]-amino}-2′-trifluoromethoxy-biphenyl-4-yl)-1H-imidazol-2-yl]-pyrrolidine-1-carbonyl}-2-methyl-propyl)-carbamic acid methyl ester dihydrochloride Anhydrous Form [anhydrous dihydrochloride salt] | neither crystalline compound 1 nor the anhydrous and hydrate forms of the crystalline dihydrochloride salt of compound 1 is deliquescent | about 0.8% |  | no change in form |  |  |  |  | 
3 | CNC(=O)N1C[C@@H](C)N(c2ccc(C(=O)Nc3ccc(-c4ccc(-c5c[nH]c([C@@H]6CCCN6C(=O)[C@@H](NC(=O)OC)C(C)C)n5)cc4)c(OC(F)(F)F)c3)cn2)C[C@@H]1C [Compound 1, ((S)-1-{(S)-2-[4-(4′-{[6-((2R,5S)-2,5-dimethyl-4-methylcarbamoyl-piperazin-1-yl)-pyridine-3-carbonyl]-amino}-2′-trifluoromethoxy-biphenyl-4-yl)-1H-imidazol-2-yl]-pyrrolidine-1-carbonyl}-2-methyl-propyl)-carbamic acid methyl ester] |  |  |  |  | ≤ 0.01 | ≤ 0.1 | ≤ 10 | ≤ 10 | 
4 | CNC(=O)N1C[C@@H](C)N(c2ccc(C(=O)Nc3ccc(-c4ccc(-c5c[nH]c([C@@H]6CCCN6C(=O)[C@@H](NC(=O)OC)C(C)C)n5)cc4)c(OC(F)(F)F)c3)cn2)C[C@@H]1C.Cl.Cl.O [monohydrate form, Crystalline ((S)-1-{(S)-2-[4-(4′-{[6-((2R,5S)-2,5-Dimethyl-4-methylcarbamoyl-piperazin-1-yl)-pyridine-3-carbonyl]-amino}-2′-trifluoromethoxy-biphenyl-4-yl)-1H-imidazol-2-yl]-pyrrolidine-1-carbonyl}-2-methyl-propyl)-carbamic acid methyl ester dihydrochloride Monohydrate Form] | neither crystalline compound 1 nor the anhydrous and hydrate forms of the crystalline dihydrochloride salt of compound 1 is deliquescent |  |  | no change in form |  |  |  |  | about 2%
